Peptide text beside a SMILES is read from it.
Experiments:
rat GALR2 receptor [1] = target: T1, rat GALR2 receptor (Rattus norvegicus, UniProt O08726); assay: intracellular calcium mobilization (Fura-2) in cells transfected with rat GALR2; format: cell-based; design: expressed in transfected cells
T1 sequence (O08726 1-372): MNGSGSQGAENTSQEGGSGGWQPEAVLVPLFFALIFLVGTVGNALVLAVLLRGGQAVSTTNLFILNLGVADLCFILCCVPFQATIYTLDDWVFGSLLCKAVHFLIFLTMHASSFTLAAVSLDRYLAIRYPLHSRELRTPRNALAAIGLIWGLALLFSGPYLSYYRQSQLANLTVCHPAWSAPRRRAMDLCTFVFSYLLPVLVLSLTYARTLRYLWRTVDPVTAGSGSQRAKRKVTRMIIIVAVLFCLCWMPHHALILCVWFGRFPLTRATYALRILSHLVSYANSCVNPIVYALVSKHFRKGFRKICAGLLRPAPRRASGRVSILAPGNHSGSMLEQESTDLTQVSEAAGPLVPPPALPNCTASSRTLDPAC
Protocol: The intracellular free calcium concentration may be measured by microspectroflourometry using the fluorescent indicator dye Fura-2/AM (Bush et al. 1991). Stably transfected cells are seeded onto a 35 mm culture dish containing a glass coverslip insert. Cells are washed with HBS and loaded with 100 μL of Fura-2/AM (10 μM) for 20 to 40 min. After washing with HBS to remove the Fura-2/AM solution, cells are equilibrated in HBS for 10 to 20 min. Cells are then visualized under the 40× objective of a Leitz Fluovert FS microscope and fluorescence emission is determined at 510 nm with excitation wavelengths alternating between […]. Raw fluorescence data are converted to calcium concentrations using standard calcium concentration curves and software analysis techniques.

rat GALR2 receptor [2] = target: T1, rat GALR2 receptor; assay: arachidonic acid release in CHO cells stably transfected with rat GALR2 (C-rGalR2-79); format: cell-based; design: expressed in transfected cells
Protocol: The labeled cells were washed three times with 200 ul HAM's F-12. The wells were then filled with medium (200 uL) and the assay was initiated with the addition of peptides or buffer (22 uL). Cells were incubated for 30 min at 37° C., 5% CO2. Supernatants were transferred to a microtiter plate and evaporated to dryness at 75° C. in a vacuum oven. Samples were then dissolved and resuspended in 25 uL distilled water. Scintillant (300 uL) was added to each well and samples were counted for ^3H in a Trilux plate reader. Data were analyzed using nonlinear regression and statistical techniques available in the GraphPAD Prism package (San Diego, Calif.).

rat GALR1 receptor [3] = target: T2, rat GALR1 receptor (Rattus norvegicus, UniProt Q62805); format: cell-based; design: expressed in transfected cells; host or cells: COS-7 (transient); conditions: for fold less potent than porcine galanin in the rat GalR1 cAMP assay: LM(tk-) rat GALR1
T2 sequence (Q62805 1-346): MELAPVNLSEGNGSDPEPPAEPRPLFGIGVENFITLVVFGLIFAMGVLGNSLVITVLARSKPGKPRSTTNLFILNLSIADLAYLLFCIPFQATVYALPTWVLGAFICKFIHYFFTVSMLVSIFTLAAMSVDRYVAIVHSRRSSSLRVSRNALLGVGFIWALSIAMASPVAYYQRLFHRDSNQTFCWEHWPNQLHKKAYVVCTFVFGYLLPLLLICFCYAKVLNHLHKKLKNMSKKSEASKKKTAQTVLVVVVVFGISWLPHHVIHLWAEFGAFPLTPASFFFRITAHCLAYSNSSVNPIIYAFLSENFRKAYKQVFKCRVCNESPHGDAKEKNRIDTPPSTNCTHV

human GALR2 receptor = target: T3, human GALR2 receptor (Homo sapiens, UniProt O43603); assay: MAP kinase phosphorylation (western blot) in CHO cells expressing human GALR2; format: cell-based; conditions: CHO human GALR2, 10 minutes, human galanin (10 μM)
T3 construct: To obtain a full-length hGALR2 clone, superpools of a human heart cDNA library were screened by PCR; expressed in transfected cells
T3 sequence (O43603 1-387): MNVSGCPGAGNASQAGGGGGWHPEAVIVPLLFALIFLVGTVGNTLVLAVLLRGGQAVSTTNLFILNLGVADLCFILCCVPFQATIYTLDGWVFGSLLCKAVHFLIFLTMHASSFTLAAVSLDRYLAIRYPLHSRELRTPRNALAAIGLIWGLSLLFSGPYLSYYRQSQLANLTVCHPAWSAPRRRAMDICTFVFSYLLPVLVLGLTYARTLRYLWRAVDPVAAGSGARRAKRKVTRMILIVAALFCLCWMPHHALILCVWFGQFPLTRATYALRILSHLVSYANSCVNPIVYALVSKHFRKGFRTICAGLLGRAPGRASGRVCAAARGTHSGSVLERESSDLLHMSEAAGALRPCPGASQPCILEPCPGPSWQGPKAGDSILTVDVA
Protocol: (§1) CHO cells expressing either the rat GALR2 receptor or the human GALR2 receptor were plated at ˜50% confluence into well-plates and grown in culture with fetal bovine serum reduced to 0.5% for 2 days. Fresh medium was exchanged for old and then aspirated after 2 hrs. […] Cells were washed with phosphate buffered saline and lysed in 100 uL Laemmli sample buffer (Bio-Rad) containing 5% β-mercaptoethanol. Cell lysate was scraped off the plate, transferred to a microfuge tube on ice, and sonicated for 10-15 seconds. Samples were heated at 100° C. for 3-5 minutes. Insoluble material was collected by centrifugation at 10,000×g for 5 min. Supernatant (20 μL/lane) was loaded onto a 4-20% polyacrylamide Bio-Rad Ready-Gel (10×10 cm) together with a phospho-MAP kinase protein standard (New England BioLabs) and molecular weight markers. […] The phospho-MAP kinase complex was detected by chemiluminescence using Lumiglow reagent (New England BioLabs) and Kodak X-Omat film, with exposure times ranging from 10 to 120 seconds.
(§2) Another functional assay relies on the fact that MAP kinase phosphorylation precedes the activation of phospholipase A2. We tested whether galanin-dependent activation of GALR2 could be monitored by changes in MAP kinase phosphorylation. […]

rat GALR2 receptor [4] = target: T1, rat GALR2 receptor; assay: MAP kinase phosphorylation (western blot) in CHO cells expressing rat GALR2; format: cell-based; design: expressed in transfected cells; conditions: CHO rat GALR2, 10 minutes, human galanin (10 μM)
Protocol: as §1, §2

rat GALR1 receptor [5] = target: T2, rat GALR1 receptor; assay: biochemical
[6] = tested on: galanin binding sites in brain, spinal cord, pancreatic islets and cell lines, gastrointestinal smooth muscle; conditions: read-out: affinity of high-affinity galanin binding sites; several mammalian species and tissues; cited from earlier work
[7] = tested on: [125I]galanin binding sites in rat brain; assay: galanin receptor autoradiography, displacement of [125I]galanin from rat brain tissue sections; conditions: 5 μM
Protocol: Male Sprague-Dawley rats (Charles River, Wilmington, Mass.) were euthanized using CO2, decapitated, and their brains immediately removed and frozen on dry ice. Tissue sections were cut at 20 μm using a cryostat and thaw mounted onto gelatin coated slides. Tissues were preincubated in two 10 minute changes of 50 mM Tris-HCl buffer pH 7.4, containing 5 mM MgSO4 and 2 mM EGTA (Sigma). […] After incubation, tissues were dipped twice in ice-cold Tris-HCl buffer (40° C.), followed by a 5 minute wash in ice-cold Tris-HCl buffer (4° C.), then dipped twice in ice-cold deionized water to remove the salts. Sections were placed in X-ray cassettes and apposed to Dupont Cronex MRF 34 Film for 5 days. Films were developed using a Kodak M35A Processor.

rat GALR2 receptor [8] = target: T1, rat GALR2 receptor; assay: voltage clamp currents in Xenopus oocytes injected with rGalR2 mRNA; format: cell-based; design: expressed in transfected cells; conditions: 100-1000 nM, oocytes injected with 5-50 pg rGalR2 mRNA, holding potential -80 mV
rat GALR2 receptor [9] = target: T1, rat GALR2 receptor; assay: GTPgamma35S binding to membranes of cells transfected with rat GalR2; format: biochemical; design: expressed in transfected cells; conditions: 1 μM peptide, n=3
Protocol: Membranes from cells transfected with the rat GalR2 receptor were suspended in assay buffer (50 mM Tris, 100 mM NaCl, 5 mM MgCl2, pH 7.4) supplemented with 0.1% BSA, 0.1% bacitracin and 10 μM GDP. Membranes were incubated on ice for 20 minutes, transferred to a 96-well Millipore microtiter GF/C filter plate and mixed with GTPγ^35S (250,000 cpm/sample, specific activity ˜1000 Ci/mmol) plus or minus GTPγS (final concentration=100 μM). Final membrane protein concentration=90 μg/mL. […] Samples collected in the filter plate were treated with scintillant and counted for ^35S in a Trilux (Wallac) liquid scintillation counter.
The signal transduction pathway outlined for rat GalR2 allows for the development of functional assays other than inositol phosphate, calcium, and arachidonic acid determination. One such assay relies on the fact that binding of GTP to a G-protein precedes agonist-dependent activation of phospholipase C. we examined whether galanin-dependent activation of GALR2 could be monitored by the binding of GTPγ^35S to membranes from stably transfected cells.

rat galanin
increase of intracellular free [Ca+2] (Δ[Ca+2]) (rat GALR2 receptor [1]; 1 μM peptide, C-rGALR2-79, n=9, not in untransfected cells): 310 ± 70 nM

CC[C@H](C)[C@H](NC(=O)[C@H](C)NC(=O)[C@H](Cc1c[nH]cn1)NC(=O)[C@@H]1CCCN1C(=O)CNC(=O)[C@H](CC(C)C)NC(=O)[C@H](CC(C)C)NC(=O)[C@H](Cc1ccc(O)cc1)NC(=O)CNC(=O)[C@H](C)NC(=O)[C@H](CO)NC(=O)[C@H](CC(N)=O)NC(=O)[C@H](CC(C)C)NC(=O)[C@@H](NC(=O)[C@H](Cc1c[nH]c2ccccc12)NC(=O)CNC(=O)[C@H](CCCNC(=N)N)NC(=O)[C@H](CCCCN)NC(=O)[C@H](CCC(=O)O)NC(=O)[C@H](CCCCN)NC(=O)[C@@H](NC(=O)[C@@H]1CCCN1C(=O)[C@@H](N)CO)C(C)C)[C@@H](C)O)C(=O)N[C@@H](CC(=O)O)C(=O)N[C@@H](CC(N)=O)C(=O)N[C@@H](Cc1c[nH]cn1)C(=O)N[C@@H](CCCNC(=N)N)C(=O)N[C@@H](CO)C(=O)N[C@@H](Cc1ccccc1)C(=O)N[C@@H](Cc1c[nH]cn1)C(=O)N[C@@H](CC(=O)O)C(=O)N[C@@H](CCCCN)C(=O)N[C@@H](Cc1ccc(O)cc1)C(=O)NCC(=O)N[C@@H](CC(C)C)C(=O)N[C@@H](C)C(N)=O [porcine galanin (−7) to (+29)]
fold less potent than porcine galanin in the rat GalR2 arachidonic acid assay (rat GALR2 receptor [2]): 3 fold | fold less potent than porcine galanin in the rat GalR1 cAMP assay (rat GALR1 receptor [3]): 350 fold

Human galanin
phosphorylated MAP kinase levels (human GALR2 receptor): increase | phosphorylated MAP kinase levels (rat GALR2 receptor [4]): increase

CC(C)C[C@H](NC(=O)[C@H](CC(C)C)NC(=O)[C@@H](Cc1c[nH]c2ccccc12)NC(=O)[C@H](Cc1ccccc1)NC(=O)[C@@H](Cc1c[nH]c2ccccc12)NC(=O)[C@H](CCC(N)=O)NC(=O)[C@H](CCC(N)=O)NC(=O)[C@@H]1CCCN1C(=O)[C@H](CCCCN)NC(=O)[C@@H]1CCCN1C(=O)[C@@H](CCCNC(=N)N)NC(=O)[C@@H]1CCCN1C(=O)CNC(=O)[C@H](CC(C)C)NC(=O)[C@H](CC(C)C)NC(=O)[C@H](Cc1ccc(O)cc1)NC(=O)CNC(=O)[C@H](C)NC(=O)[C@H](CO)NC(=O)[C@H](CC(N)=O)NC(=O)[C@H](CC(C)C)NC(=O)[C@@H](NC(=O)[C@H](Cc1c[nH]c2ccccc12)NC(=O)CN)[C@@H](C)O)C(N)=O [Peptide C7, C7] (HELM PEPTIDE1{G.W.T.L.N.S.A.G.Y.L.L.G.P.[dR].P.K.P.Q.Q.[dW].F.[dW].L.L.[am]}$$$$V2.0; N-terminus and C-terminus assumed)
Ki (rat GALR1 receptor [5]): 16200 pM | EC50 (rat GALR1 receptor [3]; read-out: LM(tk-) Rat GALR1 cAMP assay EC50): 520 pM

CC[C@H](C)[C@H](NC(=O)[C@H](C)NC(=O)[C@H](Cc1c[nH]cn1)NC(=O)[C@@H]1CCCN1C(=O)CNC(=O)[C@H](CC(C)C)NC(=O)[C@H](CC(C)C)NC(=O)[C@H](Cc1ccc(O)cc1)NC(=O)CNC(=O)[C@H](C)NC(=O)[C@H](CO)NC(=O)[C@H](CC(N)=O)NC(=O)[C@H](CC(C)C)NC(=O)[C@@H](NC(=O)[C@H](Cc1c[nH]c2ccccc12)NC(=O)CNC(=O)[C@H](CCCNC(=N)N)NC(=O)[C@H](CCCCN)NC(=O)[C@H](CCC(=O)O)NC(=O)[C@H](CCCCN)NC(=O)[C@@H](NC(=O)[C@@H]1CCCN1C(=O)[C@H](CO)NC(=O)CNC(=O)[C@@H](N)CC(C)C)C(C)C)[C@@H](C)O)C(=O)N[C@@H](CC(=O)O)C(=O)N[C@@H](CC(N)=O)C(=O)N[C@@H](Cc1c[nH]cn1)C(=O)N[C@@H](CCCNC(=N)N)C(=O)N[C@@H](CO)C(=O)N[C@@H](Cc1ccccc1)C(=O)N[C@@H](Cc1c[nH]cn1)C(=O)N[C@@H](CC(=O)O)C(=O)N[C@@H](CCCCN)C(=O)N[C@@H](Cc1ccc(O)cc1)C(=O)NCC(=O)N[C@@H](CC(C)C)C(=O)N[C@@H](C)C(N)=O [porcine galanin (−9) to (+29)]
fold less potent than porcine galanin in the rat GalR2 arachidonic acid assay (rat GALR2 receptor [2]): 2 fold | fold less potent than porcine galanin in the rat GalR1 cAMP assay (rat GALR1 receptor [3]): 400 fold

[^125I]porcine galanin
Kd [6]: 500 to 1000 pM

porcine galanin (1-29)
displacement of [125I]galanin binding from rat brain tissue sections [7]: complete displacement | activation of rapid inward currents (oocytes responding) (rat GALR2 receptor [8]): 36 of 46 | binding of GTPγ35S in presence of peptide (rat GALR2 receptor [9]; C-rGALR2-79 membranes, without peptide 8,014±113 cpm): 10,292±104 cpm | binding of GTPγ35S in presence of peptide (rat GALR2 receptor [9]; L-rGalR2I-4 membranes (intronless), without peptide 27,545±504 cpm): 29,011±526 cpm | effect on intracellular calcium levels (rat GALR2 receptor [1]; COS-7 cells transfected with rat GALR2 cDNA): no effect

Source: patent publication US6586191B2 (priority 1996, dated 2003)
